Data on 9 compounds can be found in patent publication US9321790B2, “Pyrimidinone derivatives as antimalarial agents” (SANOFI, priority 2012, dated 2016).

pIC50: −log10 of the molar value. Where only a bound is given, the exact number is not on record here.

The subject of assay [1] is Plasmodium falciparum (strain NF54). Kind of assay: Antimalarial activity test: growth of Plasmodium falciparum in infected human erythrocytes, 3H-hypoxanthine incorporation. Format: cell-based. To be noted: strain NF54 sensitive to chloroquine, 72 h total incubation. The essentials:
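Chloroquine-sensitive NF54 parasites in human erythrocytes (1.25% hematocrit, 0.15% parasitemia) were grown in hypoxanthine-free RPMI 1640 with HEPES and Albumax II, with compound in twofold serial dilution, at 37 °C under 93% N2/4% CO2/3% O2. After 48 h, 3H-hypoxanthine (0.5 μCi) was added for 24 h. Scintillation counts versus drug-free control gave IC50.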

A further assay has as its target human PI3Kα (Homo sapiens (Human), UniProt P42336). Kind of assay: Human PI3Kα activity test (luciferin/luciferase ATP consumption, KinaseGlo). Format: biochemical. Particulars: PI3Kα (p110α/p85α), 50 μM PIP2, 2 μM ATP, 90 minutes; read-out: IC50 Human PI3Kα. A general note: Kinase-Glo reads ATP consumption through a luciferase reaction.
Setting [2] is: Plasmodium falciparum, Erythrocyte.

Chain of human PI3Kα (P42336 whole entry): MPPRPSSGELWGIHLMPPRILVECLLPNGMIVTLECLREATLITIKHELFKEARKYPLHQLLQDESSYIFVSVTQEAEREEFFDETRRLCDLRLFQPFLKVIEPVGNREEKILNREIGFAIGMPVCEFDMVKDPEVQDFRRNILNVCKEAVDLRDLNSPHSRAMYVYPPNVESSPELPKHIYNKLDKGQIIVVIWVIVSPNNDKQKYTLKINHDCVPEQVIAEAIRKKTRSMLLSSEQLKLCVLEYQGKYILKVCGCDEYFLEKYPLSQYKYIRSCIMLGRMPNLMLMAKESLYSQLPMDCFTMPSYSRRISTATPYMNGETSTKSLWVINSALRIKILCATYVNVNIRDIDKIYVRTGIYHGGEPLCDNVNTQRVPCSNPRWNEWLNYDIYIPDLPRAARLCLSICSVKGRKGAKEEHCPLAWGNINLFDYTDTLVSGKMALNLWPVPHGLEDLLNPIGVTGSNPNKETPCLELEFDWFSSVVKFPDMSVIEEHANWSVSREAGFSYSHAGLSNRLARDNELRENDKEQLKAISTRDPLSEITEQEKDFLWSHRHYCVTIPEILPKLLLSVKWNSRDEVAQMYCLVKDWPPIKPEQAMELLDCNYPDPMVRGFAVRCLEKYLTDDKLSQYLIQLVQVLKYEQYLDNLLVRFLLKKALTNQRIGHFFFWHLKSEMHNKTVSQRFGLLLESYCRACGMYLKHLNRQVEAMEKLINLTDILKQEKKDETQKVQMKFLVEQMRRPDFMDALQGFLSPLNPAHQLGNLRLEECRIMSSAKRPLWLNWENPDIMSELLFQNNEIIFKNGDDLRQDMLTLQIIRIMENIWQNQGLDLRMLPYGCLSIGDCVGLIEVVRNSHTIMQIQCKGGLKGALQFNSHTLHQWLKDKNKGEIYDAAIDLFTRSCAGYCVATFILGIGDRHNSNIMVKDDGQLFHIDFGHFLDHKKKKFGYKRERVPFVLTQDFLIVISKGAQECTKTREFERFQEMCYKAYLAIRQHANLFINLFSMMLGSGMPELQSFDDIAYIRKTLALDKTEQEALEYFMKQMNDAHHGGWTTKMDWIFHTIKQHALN
Chain of human PI3Kα (P27986 whole entry partner): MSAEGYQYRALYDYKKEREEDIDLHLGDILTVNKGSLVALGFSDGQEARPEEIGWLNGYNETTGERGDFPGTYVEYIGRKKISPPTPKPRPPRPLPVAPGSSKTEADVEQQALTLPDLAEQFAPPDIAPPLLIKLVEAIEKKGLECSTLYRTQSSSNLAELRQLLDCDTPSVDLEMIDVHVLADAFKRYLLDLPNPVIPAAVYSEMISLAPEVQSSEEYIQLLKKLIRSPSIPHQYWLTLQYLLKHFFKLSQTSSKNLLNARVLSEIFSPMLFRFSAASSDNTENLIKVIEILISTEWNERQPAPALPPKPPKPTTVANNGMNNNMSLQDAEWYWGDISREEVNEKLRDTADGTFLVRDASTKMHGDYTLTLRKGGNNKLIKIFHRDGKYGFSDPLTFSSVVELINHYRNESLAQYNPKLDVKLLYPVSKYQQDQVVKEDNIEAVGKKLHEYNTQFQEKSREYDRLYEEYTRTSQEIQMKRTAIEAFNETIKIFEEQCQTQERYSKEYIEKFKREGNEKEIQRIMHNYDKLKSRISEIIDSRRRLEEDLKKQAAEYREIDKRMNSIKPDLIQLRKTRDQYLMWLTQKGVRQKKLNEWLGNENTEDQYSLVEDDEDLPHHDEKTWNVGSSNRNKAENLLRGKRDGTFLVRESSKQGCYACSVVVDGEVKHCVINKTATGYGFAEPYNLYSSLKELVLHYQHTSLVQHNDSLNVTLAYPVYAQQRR
Procedure for human PI3Kα: The test uses a luciferin/luciferase system to measure the concentration of ATP and its consumption during the enzymatic reaction.
After 90 minutes, the reaction is quenched by adding 20 μl/well of KinaseGlo reagent (Promega V6713). After 10 minutes in the dark, the luminescence is read using a PHERAStar microplate reader (reading at 0.8 sec/well).

For `O=c1cc(N2C[C@@H]3C[C@H]2CO3)nc2n1CC[C@@H](C(F)(F)F)N2CC1(O)CC1` [Compound 104, (8S)-9-(1-hydroxycyclopropylmethyl)-2-(1S,4S)-2-oxa-5-azabicyclo[2.2.1]hept-5-yl-8-trifluoromethyl-6,7,8,9-tetrahydropyrimido[1,2-a]pyrimidin-4-one], the pIC50 is 7.92 in assay [1] (setting [2]) and 6.03 at human PI3Kα.

In the case of `O=c1cc(N2C[C@@H]3C[C@H]2CO3)nc2n1CC[C@@H](C(F)(F)F)N2CCC1(O)CC1` [Compound 105, (8S)-9-[2-(1-Hydroxycyclopropyl)ethyl]-2-(1S,4S)-2-oxa-5-azabicyclo[2.2.1]hept-5-yl-8-trifluoromethyl-6,7,8,9-tetrahydropyrimido[1,2-a]pyrimidin-4-one], the pIC50 in assay [1] (setting [2]) is 7.62; on human PI3Kα it was 5.72.

With `O=c1cc(N2C[C@@H]3C[C@H]2CO3)nc2n1CC[C@@H](C(F)(F)F)N2Cc1cccc2ncccc12` [Compound 106, (8S)-2-(1S,4S)-2-oxa-5-azabicyclo[2.2.1]hept-5-yl-9-quinolin-5-ylmethyl-8-trifluoromethyl-6,7,8,9-tetrahydropyrimido[1,2-a]pyrimidin-4-one], the results for the negative logarithm of the IC50 (pIC50) (in assay [1] (setting [2]); at human PI3Kα) were 7.89 and under 5.00, respectively.

With `Cc1nscc1C(=O)CN1c2nc(N3C[C@@H]4C[C@H]3CO4)cc(=O)n2CC[C@H]1C(F)(F)F` [Compound 107, (8S)-9-[2-(3-Methylisothiazol-4-yl)-2-oxoethyl]-2-(1S,4S)-2-oxa-5-azabicyclo[2.2.1]hept-5-yl-8-trifluoromethyl-6,7,8,9-tetrahydropyrimido[1,2-a]pyrimidin-4-one], the pIC50 in assay [1] (setting [2]) was 7.00; at human PI3Kα it was under 5.00.

On to `CS(=O)(=O)c1ccc(C(=O)CN2c3nc(N4C[C@@H]5C[C@H]4CO5)cc(=O)n3CC[C@H]2C(F)(F)F)cc1` [Compound 108, (8S)-9-[2-(4-Methanesulfonylphenyl)-2-oxoethyl]-2-(1S,4S)-2-oxa-5-azabicyclo[2.2.1]hept-5-yl-8-trifluoromethyl-6,7,8,9-tetrahydropyrimido[1,2-a]pyrimidin-4-one], for which the results for the negative logarithm of the IC50 (pIC50) (in assay [1] (setting [2]); on human PI3Kα) were 7.07 and under 5.00, respectively.

With `O=c1cc(N2C[C@@H]3C[C@H]2CO3)nc2n1CC[C@@H](C(F)(F)F)N2Cc1cccc2cnccc12` [Compound 109, (8S)-9-Isoquinolin-5-ylmethyl-2-(1S,4S)-2-oxa-5-azabicyclo[2.2.1]hept-5-yl-8-trifluoromethyl-6,7,8,9-tetrahydropyrimido[1,2-a]pyrimidin-4-one], the pIC50 is 7.10 in assay [1] (setting [2]) and 5.11 on human PI3Kα.

For the compound `O=C(CN1c2nc(N3C[C@@H]4C[C@H]3CO4)cc(=O)n2CC[C@H]1C(F)(F)F)N1CCOCC1` [Compound 110, (8S)-9-(2-Morpholin-4-yl-2-oxoethyl)-2-(1S,4S)-2-oxa-5-azabicyclo[2.2.1]hept-5-yl-8-trifluoromethyl-6,7,8,9-tetrahydropyrimido[1,2-a]pyrimidin-4-one], the negative-log IC50 (pIC50) was 6.48 in assay [1] (setting [2]) and under 5.00 at human PI3Kα.

As for `O=c1cc(N2C[C@@H]3C[C@H]2CO3)nc2n1CC[C@@H](C(F)(F)F)N2CCc1ccc(OCCN2CCOCC2)cc1` [Compound 111, (8S)-9-{2-[4-(2-Morpholin-4-ylethoxy)phenyl]ethyl}-2-(1S,4S)-2-oxa-5-azabicyclo[2.2.1]hept-5-yl-8-trifluoromethyl-6,7,8,9-tetrahydropyrimido[1,2-a]pyrimidin-4-one], the pIC50 was 8.30 in assay [1] (setting [2]) and 6.48 on human PI3Kα.

As for `CON(C)C(=O)CN1c2nc(N3C[C@@H]4C[C@H]3CO4)cc(=O)n2CC[C@H]1C(F)(F)F` [Compound 112, N-Methoxy-N-methyl-2-((S)-8-(1S,4S)-2-oxa-5-azabicyclo[2.2.1]hept-5-yl-6-oxo-2-trifluoromethyl-3,4-dihydro-2H,6H-pyrimido[1,2-a]pyrimidin-1-yl)acetamide], the negative logarithm of the IC50 (pIC50) in assay [1] is 6.70; at human PI3Kα, under 5.00.

As usually defined, the pIC50 is the negative decadic logarithm of the IC50, by convention in mol/L.
